Data as given in PubChem BioAssay (NCI).
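Results reflect a 48-hour exposure of cells in 96-well plates to compound at five concentrations. At the TGI there is no net growth.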

Legend:
Test in all cases: growth of human tumour cells (NCI), 48 h
786-0 renal = tested on: 786-0 renal
A498 renal = tested on: A498 renal
A549 NSCLC = tested on: A549 NSCLC
ACHN renal = tested on: ACHN renal
BT-549 breast = tested on: BT-549 breast
CAKI-1 renal = tested on: CAKI-1 renal
CCRF-CEM leukemia = tested on: CCRF-CEM leukemia
COLO 205 colon = tested on: COLO 205 colon
DU-145 prostate = tested on: DU-145 prostate
EKVX NSCLC = tested on: EKVX NSCLC
HCC-2998 colon = tested on: HCC-2998 colon
HCT-116 colon = tested on: HCT-116 colon
HCT-15 colon = tested on: HCT-15 colon
HL-60(TB) leukemia = tested on: HL-60(TB) leukemia
HOP-62 NSCLC = tested on: HOP-62 NSCLC
HS 578T breast = tested on: HS 578T breast
HT29 colon = tested on: HT29 colon
IGROV1 ovarian = tested on: IGROV1 ovarian
K-562 leukemia = tested on: K-562 leukemia
KM12 colon = tested on: KM12 colon
LOX IMVI melanoma = tested on: LOX IMVI melanoma
M14 melanoma = tested on: M14 melanoma
MALME-3M melanoma = tested on: MALME-3M melanoma
MCF7 breast = tested on: MCF7 breast
MDA-MB-231 breast = tested on: MDA-MB-231 breast
MDA-MB-435 = tested on: MDA-MB-435
MDA-N = tested on: MDA-N
MOLT-4 leukemia = tested on: MOLT-4 leukemia
NCI-H226 lung = tested on: NCI-H226 lung
NCI-H23 lung = tested on: NCI-H23 lung
NCI-H460 lung = tested on: NCI-H460 lung
NCI/ADR-RES ovarian = tested on: NCI/ADR-RES ovarian
OVCAR-3 ovarian = tested on: OVCAR-3 ovarian
OVCAR-4 ovarian = tested on: OVCAR-4 ovarian
OVCAR-5 ovarian = tested on: OVCAR-5 ovarian
OVCAR-8 ovarian = tested on: OVCAR-8 ovarian
PC-3 prostate = tested on: PC-3 prostate
RPMI-8226 leukemia = tested on: RPMI-8226 leukemia
RXF 393 renal = tested on: RXF 393 renal
SF-268 CNS = tested on: SF-268 CNS
SF-295 CNS = tested on: SF-295 CNS
SF-539 CNS = tested on: SF-539 CNS
SK-MEL-2 melanoma = tested on: SK-MEL-2 melanoma
SK-MEL-28 melanoma = tested on: SK-MEL-28 melanoma
SK-MEL-5 melanoma = tested on: SK-MEL-5 melanoma
SK-OV-3 ovarian = tested on: SK-OV-3 ovarian
SN12C renal = tested on: SN12C renal
SNB-19 CNS = tested on: SNB-19 CNS
SR leukemia = tested on: SR leukemia
SW-620 colon = tested on: SW-620 colon
T-47D breast = tested on: T-47D breast
TK-10 renal = tested on: TK-10 renal
U251 CNS = tested on: U251 CNS
UACC-257 melanoma = tested on: UACC-257 melanoma
UACC-62 melanoma = tested on: UACC-62 melanoma
UO-31 renal = tested on: UO-31 renal
HOP-92 NSCLC = tested on: HOP-92 NSCLC
NCI-H522 lung = tested on: NCI-H522 lung

Question: How did the TGI (786-0 renal) turn out when `CN(CC#N)C(=O)Cc1ccc([N+](=O)[O-])cc1` was run?
Answer: > 10 µM

Question: And the TGI (A498 renal)?
Answer: > 10 µM

Question: What about the TGI (A549 NSCLC) of the same molecule?
Answer: > 10 µM

Question: And the TGI (ACHN renal)?
Answer: > 10 µM

Question: And the TGI (BT-549 breast)?
Answer: > 10 µM

Question: What about the TGI (CAKI-1 renal) of the same molecule?
Answer: > 10 µM

Question: What about the TGI (CCRF-CEM leukemia) of the same molecule?
Answer: > 10 µM

Question: What about the TGI (COLO 205 colon) of the same molecule?
Answer: > 10 µM

Question: What about the TGI (DU-145 prostate) of the same molecule?
Answer: > 10 µM

Question: And the TGI (EKVX NSCLC)?
Answer: > 10 µM

Question: What about the TGI (HCC-2998 colon) of the same molecule?
Answer: > 10 µM

Question: What about the TGI (HCT-116 colon) of the same molecule?
Answer: > 10 µM

Question: And the TGI (HCT-15 colon)?
Answer: > 10 µM

Question: And the TGI (HL-60(TB) leukemia)?
Answer: > 10 µM

Question: And the TGI (HOP-62 NSCLC)?
Answer: > 10 µM

Question: And the TGI (HS 578T breast)?
Answer: > 10 µM

Question: And the TGI (HT29 colon)?
Answer: > 10 µM

Question: What about the TGI (IGROV1 ovarian) of the same molecule?
Answer: > 10 µM

Question: And the TGI (K-562 leukemia)?
Answer: > 10 µM

Question: What about the TGI (KM12 colon) of the same molecule?
Answer: > 10 µM

Question: And the TGI (LOX IMVI melanoma)?
Answer: > 10 µM

Question: And the TGI (M14 melanoma)?
Answer: > 10 µM

Question: And the TGI (MALME-3M melanoma)?
Answer: > 10 µM

Question: And the TGI (MCF7 breast)?
Answer: > 10 µM

Question: What about the TGI (MDA-MB-231 breast) of the same molecule?
Answer: > 10 µM

Question: What about the TGI (MDA-MB-435) of the same molecule?
Answer: > 10 µM

Question: What about the TGI (MDA-N) of the same molecule?
Answer: > 10 µM

Question: And the TGI (MOLT-4 leukemia)?
Answer: > 10 µM

Question: And the TGI (NCI-H226 lung)?
Answer: > 10 µM

Question: What about the TGI (NCI-H23 lung) of the same molecule?
Answer: > 10 µM

Question: And the TGI (NCI-H460 lung)?
Answer: > 10 µM

Question: What about the TGI (NCI/ADR-RES ovarian) of the same molecule?
Answer: > 10 µM

Question: And the TGI (OVCAR-3 ovarian)?
Answer: > 10 µM

Question: And the TGI (OVCAR-4 ovarian)?
Answer: > 10 µM

Question: What about the TGI (OVCAR-5 ovarian) of the same molecule?
Answer: > 10 µM

Question: What about the TGI (OVCAR-8 ovarian) of the same molecule?
Answer: > 10 µM

Question: And the TGI (PC-3 prostate)?
Answer: > 10 µM

Question: And the TGI (RPMI-8226 leukemia)?
Answer: > 10 µM

Question: What about the TGI (RXF 393 renal) of the same molecule?
Answer: > 10 µM

Question: And the TGI (SF-268 CNS)?
Answer: > 10 µM

Question: And the TGI (SF-295 CNS)?
Answer: > 10 µM

Question: What about the TGI (SF-539 CNS) of the same molecule?
Answer: > 10 µM

Question: And the TGI (SK-MEL-2 melanoma)?
Answer: > 10 µM

Question: And the TGI (SK-MEL-28 melanoma)?
Answer: > 10 µM

Question: And the TGI (SK-MEL-5 melanoma)?
Answer: > 10 µM

Question: What about the TGI (SK-OV-3 ovarian) of the same molecule?
Answer: > 10 µM

Question: And the TGI (SN12C renal)?
Answer: > 10 µM

Question: And the TGI (SNB-19 CNS)?
Answer: > 10 µM

Question: What about the TGI (SR leukemia) of the same molecule?
Answer: > 10 µM

Question: What about the TGI (SW-620 colon) of the same molecule?
Answer: > 10 µM

Question: And the TGI (T-47D breast)?
Answer: > 10 µM

Question: What about the TGI (TK-10 renal) of the same molecule?
Answer: > 10 µM

Question: And the TGI (U251 CNS)?
Answer: > 10 µM

Question: And the TGI (UACC-257 melanoma)?
Answer: > 10 µM

Question: What about the TGI (UACC-62 melanoma) of the same molecule?
Answer: > 10 µM

Question: And the TGI (UO-31 renal)?
Answer: > 10 µM

Question: Which results are given for `O=C(CCc1cccc(O)c1)NCCc1cccc(OCc2ccccc2)c1`?
Answer: TGI (786-0 renal): 67.5 µM; TGI (A498 renal): > 55.2 µM; TGI (A549 NSCLC): > 70.9 µM; TGI (ACHN renal): > 78.3 µM; TGI (BT-549 breast): 32.5 µM; TGI (CAKI-1 renal): > 72.2 µM; TGI (CCRF-CEM leukemia): 42.4 µM; TGI (COLO 205 colon): 38 µM; TGI (DU-145 prostate): > 80 µM; TGI (EKVX NSCLC): 62.2 µM; TGI (HCC-2998 colon): 31.7 µM; TGI (HCT-116 colon): 30.3 µM; TGI (HCT-15 colon): 49.3 µM; TGI (HL-60(TB) leukemia): > 100 µM; TGI (HOP-62 NSCLC): 30.6 µM; TGI (HOP-92 NSCLC): 33.8 µM; TGI (HS 578T breast): 40.3 µM; TGI (HT29 colon): 30.7 µM; TGI (IGROV1 ovarian): 25.2 µM; TGI (K-562 leukemia): 71.3 µM; TGI (KM12 colon): 21.3 µM; TGI (LOX IMVI melanoma): 29.8 µM; TGI (M14 melanoma): 30.2 µM; TGI (MALME-3M melanoma): 39.2 µM; TGI (MCF7 breast): 40.4 µM; TGI (MDA-MB-231 breast): 40.7 µM; TGI (MDA-MB-435): 29.6 µM; TGI (MDA-N): 39 µM; TGI (MOLT-4 leukemia): 43.5 µM; TGI (NCI-H226 lung): 31.5 µM; TGI (NCI-H23 lung): 45.2 µM; TGI (NCI-H460 lung): 34.5 µM; TGI (NCI-H522 lung): 33.4 µM; TGI (NCI/ADR-RES ovarian): 41.2 µM; TGI (OVCAR-3 ovarian): 26 µM; TGI (OVCAR-4 ovarian): 63.6 µM; TGI (OVCAR-5 ovarian): 57.9 µM; TGI (OVCAR-8 ovarian): 67.9 µM; TGI (PC-3 prostate): 31.8 µM; TGI (RPMI-8226 leukemia): > 60.1 µM; TGI (RXF 393 renal): 46.4 µM; TGI (SF-268 CNS): 43 µM; TGI (SF-295 CNS): 32.9 µM; TGI (SF-539 CNS): 30.7 µM; TGI (SK-MEL-2 melanoma): 32.3 µM; TGI (SK-MEL-28 melanoma): 31.8 µM; TGI (SK-MEL-5 melanoma): 29.7 µM; TGI (SK-OV-3 ovarian): 53.5 µM; TGI (SN12C renal): 45.1 µM; TGI (SNB-19 CNS): 63.7 µM; TGI (SR leukemia): > 71.6 µM; TGI (SW-620 colon): > 56.5 µM; TGI (T-47D breast): 55 µM; TGI (TK-10 renal): 55.2 µM; TGI (U251 CNS): 32 µM; TGI (UACC-257 melanoma): 34.2 µM; TGI (UACC-62 melanoma): 28.4 µM; TGI (UO-31 renal): 33.4 µM
